Measured values as given in PubChem BioAssay (NCI).
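Test compounds were applied to cells in 96-well plates for 48 hours at 5 doses. GI50 marks 50% less growth. The concentration for full growth arrest is given as TGI.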

What was measured:
Test in all cases: NCI-60 cell line screen, 48 h
HOP-92 NSCLC = test system: HOP-92 NSCLC
NCI-H23 lung = test system: NCI-H23 lung
NCI-H522 lung = test system: NCI-H522 lung
SF-268 CNS = test system: SF-268 CNS
SF-539 CNS = test system: SF-539 CNS
SK-MEL-2 melanoma = test system: SK-MEL-2 melanoma
SNB-19 CNS = test system: SNB-19 CNS
TK-10 renal = test system: TK-10 renal
UACC-257 melanoma = test system: UACC-257 melanoma
MDA-MB-435 = test system: MDA-MB-435

Row | Compound | TGI (HOP-92 NSCLC) [µM] | TGI (NCI-H23 lung) [µM] | TGI (NCI-H522 lung) [µM] | TGI (SF-268 CNS) [µM] | TGI (SF-539 CNS) [µM] | TGI (SK-MEL-2 melanoma) [µM] | TGI (SNB-19 CNS) [µM] | TGI (TK-10 renal) [µM] | TGI (UACC-257 melanoma) [µM] | GI50 (HOP-92 NSCLC) [µM] | GI50 (NCI-H23 lung) [µM] | GI50 (NCI-H522 lung) [µM] | GI50 (SF-268 CNS) [µM] | GI50 (SF-539 CNS) [µM] | GI50 (SK-MEL-2 melanoma) [µM] | GI50 (SNB-19 CNS) [µM] | GI50 (TK-10 renal) [µM] | GI50 (UACC-257 melanoma) [µM] | GI50 (MDA-MB-435) [µM] | TGI (MDA-MB-435) [µM]
1 | CC(=O)n1c(=O)c2cc3c(=O)n(-c4cccc(C#N)c4)c(=O)c3cc2c1=O | > 100 | > 100 | > 100 | > 100 | > 100 | > 100 | > 100 | > 100 | > 100 |  |  |  |  |  |  |  |  |  |  | 
2 | CC1=NN(C(=O)c2ccncc2)C(=O)C1N=Nc1ccc(F)cc1 (stereo not drawn) | > 100 | > 100 | > 100 | > 100 | > 100 | > 100 | > 100 | > 100 | > 100 |  |  |  |  |  |  |  |  |  |  | 
3 | N.N.N.N.N.O=S(=O)([O-])S(=O)(=O)[O-].[Co+3] | > 100 | > 100 | > 100 | > 100 | > 100 | > 100 | > 100 | > 100 | > 100 | > 100 | > 100 | > 100 | > 100 | > 100 | > 100 | > 100 | > 100 | > 100 |  | 
4 | O=c1[nH]c2cc([N+](=O)[O-])ccc2nc1/C(=N\Nc1ccccc1)C(O)c1ccc2c(c1)OCO2 (stereo not drawn) | 42.7 | > 100 | > 100 | > 100 | > 100 | > 100 | > 100 | > 100 | > 100 |  |  |  |  |  |  |  |  |  |  | 
5 | CC(C)(C)NCC(COc1ccc([N+](=O)[O-])cc1)OP(c1ccccc1)c1ccccc1 (stereo not drawn) |  | > 100 | 69.5 | > 100 | > 100 | > 100 | > 100 | > 100 | > 100 |  |  |  |  |  |  |  |  |  |  | 
6 | c1ccc(-c2nc(N3CCCNCC3)c3nc(-c4ccccc4)oc3n2)cc1 |  | 3.23 |  | 3.62 | 3.03 | 3.49 | 3.34 | 3 | 3.43 |  | 1.71 |  | 1.76 | 1.64 | 1.83 | 1.71 | 1.53 | 1.8 | 1.64 | 3.08
7 | CC(=O)[CH-]C(=O)c1ccccc1.CC(=O)[CH-]C(=O)c1ccccc1.CC1(C)OCC(C2OC3OC(C)(C)OC3C2[O-])O1.CC[O-].[Ti+4] (stereo not drawn) | 20.6 | 30 | 30.8 | 29 | 27.4 | 27.8 | 25.4 | 27 | 54.8 | 6.84 | 15.8 | 16.5 | 13.1 | 13.3 | 12 | 12.4 | 12.4 | 19.4 |  | 
8 | O=C1c2ccccc2-c2c1c1ccccc1c(=O)n2CCNCCn1c2c(c3ccccc3c1=O)C(=O)c1ccccc1-2 |  | > 25 | > 25 | > 25 | > 25 | > 25 | > 25 | > 25 | > 25 |  | > 25 | > 25 | > 25 | > 25 | > 25 | 0.333 | > 25 | > 25 | > 25 | > 25
9 | Nc1ccccc1C(=O)C(Br)C(Br)c1ccc2c(c1)OCO2 (stereo not drawn) | 39.5 | 47.4 | 48.1 | 91.5 | 33.8 | 35.2 | 89 | 72.7 | 44.9 |  |  |  |  |  |  |  |  |  |  | 
10 | CCOC(=O)N1CCN(CCCCCOc2ccccc2C2CCCCC2)CC1 | 17.5 | 5.93 |  | 35.1 | 19.1 |  | 22.6 | 21.7 |  | 4.07 | 3.12 |  | 15.3 | 6.39 |  | 10.7 | 7.99 |  | 3.88 | 15.1
11 | Cc1ccc2oc(=O)c(-c3ccccc3)nc2c1 |  | 90.7 | 48.7 | > 100 | 50.5 | 43.8 | > 100 | > 100 | > 100 |  |  |  |  |  |  |  |  |  |  | 
12 | Cc1cccc(C)c1N1C(=O)C(=O)C(c2nc3ccccc3s2)/C(=N/NC(=O)NN)C1=O (stereo not drawn) | > 100 | > 100 | > 100 | > 100 | > 100 | > 100 | > 100 | > 100 | > 100 |  |  |  |  |  |  |  |  |  |  | 
13 | CC1(C)CC(=O)C(CC2C(=O)c3ccccc3C2=O)C(=O)C1 | > 100 | > 100 | > 100 | > 100 | > 100 | > 100 | > 100 | > 100 | > 100 |  |  |  |  |  |  |  |  |  |  | 
14 | CC1(O)CCn2c(=O)c3cc4ccccc4cc3c(=O)n2C1O (stereo not drawn) | > 100 | > 100 | 50.7 | > 100 | > 100 | > 100 | > 100 | > 100 | > 100 |  |  |  |  |  |  |  |  |  |  | 
15 | CN(C)C(=S)Nc1nnc(Nc2ccccc2)s1 | > 100 | > 100 | > 100 |  | > 100 | > 100 | > 100 |  | > 100 |  |  |  |  |  |  |  |  |  |  | 
16 | O=C1CNS(=O)(=O)N1 | > 100 | > 100 | > 100 | > 100 | > 100 | > 100 | > 100 | > 100 | > 100 |  |  |  |  |  |  |  |  |  |  | 
17 | CN1c2ccccc2SC2C(c3ccccc3)=NOC21 (stereo not drawn) |  | 71.7 | 64.1 | > 100 | > 100 | 73.9 | > 100 | 80 |  |  |  |  |  |  |  |  |  |  |  | 
18 | Cc1ccc(C)c(N2C(=O)C(=O)C(c3nc4ccccc4s3)C(=Nc3cccc4c(=O)[nH][nH]c(=O)c34)C2=O)c1 (stereo not drawn) | > 100 | > 100 |  | > 100 | > 100 | > 100 | > 100 | > 100 | > 100 |  |  |  |  |  |  |  |  |  |  | 
19 | O=C(CC1(O)C(=O)Nc2c(Cl)ccc(Cl)c21)c1ccc(Cl)cc1Cl (stereo not drawn) | 49.6 | 43.3 |  | 62.9 | 39.8 | 48.9 | > 100 | > 100 | 25.1 |  |  |  |  |  |  |  |  |  |  | 
20 | O=C1[C@H]2ON(c3ccccc3)C(c3ccco3)[C@H]2C(=O)N1c1ccc(Cc2ccc(N3C(=O)[C@@H]4ON(c5ccccc5)C(c5ccco5)[C@@H]4C3=O)cc2)cc1 (stereo partly drawn) | > 100 | > 100 |  | > 100 | > 100 | > 100 |  |  | > 100 |  |  |  |  |  |  |  |  |  |  | 
